The values that follow are results of earlier work, collected in patent US20050159377A1, “Methods of modulating activity of prokaryotic ribosomes” (SmithKline Beecham Corporation, priority 2000, published 2005).

The data set has as its system 50S ribosomal subunit.

With `O=C(N[C@H](CO)[C@H](O)c1ccc([N+](=O)[O-])cc1)C(Cl)Cl` [chloramphenicol], the “competition with pleuromutilin for binding” value is given as “weakly compete”.
